Measurements taken from BigSolDB 2.1.

CCCCOc1ccc(C(=O)CCN2CCCCC2)cc1.Cl
solubility (mole fraction)
Conditions | 278.15 K | 283.15 K | 288.15 K | 293.15 K | 298.15 K | 303.15 K | 308.15 K | 313.15 K | 318.15 K | 323.15 K
in DMF | 0.0201 | 0.0227 | 0.0256 | 0.0291 | 0.0328 | 0.0371 | 0.0421 | 0.0475 | 0.0539 | 0.0608
in THF | 0.00088 | 0.00098 | 0.00108 | 0.00119 | 0.00133 | 0.00147 | 0.00162 | 0.0018 | 0.002 | 0.00221
in acetone | 0.0121 | 0.0148 | 0.018 | 0.0218 | 0.0263 | 0.0321 | 0.0389 | 0.0474 | 0.0574 | 0.0695
in ethanol | 0.062 | 0.07 | 0.0786 | 0.0882 | 0.0987 | 0.111 | 0.124 | 0.14 | 0.157 | 0.175
in ethyl acetate | 0.00638 | 0.00791 | 0.00983 | 0.012 | 0.0146 | 0.0181 | 0.0223 | 0.0276 | 0.0338 | 0.0415
in methanol | 0.0804 | 0.0905 | 0.103 | 0.116 | 0.131 | 0.147 | 0.166 | 0.188 | 0.212 | 0.238
in n-hexane | 0.00084 | 0.00095 | 0.00108 | 0.00122 | 0.00137 | 0.00155 | 0.00175 | 0.00198 | 0.00224 | 0.00253
in water | 0.0296 | 0.0339 | 0.039 | 0.045 | 0.0514 | 0.059 | 0.0674 | 0.0774 | 0.0888 | 0.102
